Results taken from article PMC10997755, “Discovery of a small-molecule inhibitor that traps Polθ on DNA and synergizes with PARP inhibitors” (Nature Communications, 2024).
“And” between values parts separate entries of the source, which are not always exact repeats. Equal entries are not always repeated.

Experiments:
[1] = molecular target: T1, Polθ-pol (Homo sapiens, UniProt O75417); assay: MMEJ in vitro assay; format: biochemical
T1 construct: purified recombinant human Polθ-pol (comprising amino acid residues 1792–2590); made in house
T1 sequence (O75417 1792-2590): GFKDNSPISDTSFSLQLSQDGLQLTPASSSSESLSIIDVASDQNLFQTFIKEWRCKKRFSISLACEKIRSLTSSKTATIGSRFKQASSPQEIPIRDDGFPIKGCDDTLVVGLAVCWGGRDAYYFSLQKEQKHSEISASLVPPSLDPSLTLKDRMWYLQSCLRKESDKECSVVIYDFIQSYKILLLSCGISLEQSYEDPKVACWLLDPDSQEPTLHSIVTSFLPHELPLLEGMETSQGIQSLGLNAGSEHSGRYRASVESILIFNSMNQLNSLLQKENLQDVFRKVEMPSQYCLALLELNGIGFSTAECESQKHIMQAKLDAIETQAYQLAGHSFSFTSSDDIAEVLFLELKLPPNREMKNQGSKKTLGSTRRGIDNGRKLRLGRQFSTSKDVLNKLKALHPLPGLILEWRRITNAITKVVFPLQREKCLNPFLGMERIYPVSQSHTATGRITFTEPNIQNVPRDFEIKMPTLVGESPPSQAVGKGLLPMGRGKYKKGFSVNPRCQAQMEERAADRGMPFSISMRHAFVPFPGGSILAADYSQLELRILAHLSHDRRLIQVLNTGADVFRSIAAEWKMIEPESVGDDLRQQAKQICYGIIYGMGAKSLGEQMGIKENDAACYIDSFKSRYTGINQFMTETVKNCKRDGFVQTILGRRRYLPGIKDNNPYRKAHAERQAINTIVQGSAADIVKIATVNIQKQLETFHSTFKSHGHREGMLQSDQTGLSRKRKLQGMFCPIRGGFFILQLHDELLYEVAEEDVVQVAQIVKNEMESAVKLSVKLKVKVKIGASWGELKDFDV
Experimental: For the MMEJ in vitro assay in the presence of RTx-161, 10 nM Polθ-pol was first mixed with DMSO (3% final concentration) or RTx-161 at indicated final concentrations 4–500 nM in reaction buffer (25 mM Tris-HCl pH 7.5, 10 mM MgCl2, 10% glycerol, 0.1 mg/mL BSA, 0,01% IGEPAL CA-630, 1 mM DTT) followed by incubation for 5 min at room temperature. MMEJ reactions were started by the addition of 50 μM dNTP and 25 nM 5’-^32P radiolabeled pssDNA (RP343/^32P-RP344), incubated for 15 min at 37 °C, stopped by the addition of denaturing formamide loading buffer with 50 mM EDTA, resolved in denaturing 20% PAGE and analyzed using Typhoon PhosphorImager (GE Amersham). Quantification was performed using ImageQuant TL software. For the MMEJ in vitro assay in the presence of MC160385, 0.2–10 μM MC160385, 10 nM Polθ-pol, 60 nM 5’-^32P radiolabeled pssDNA and 100 μM dNTPs were used. The reaction was performed as above and stopped by the Proteinase K treatment in 50 mM EDTA and 0.5% SDS. The products were resolved in native 12% PAGE at room temp and analyzed as above.

[2] = molecular target: T2, Polθ-pol on DNA/DNA (Homo sapiens, UniProt O75417); assay: Relative rate of ddCMP addition on DNA/DNA; format: biochemical; conditions: for Average % Extension (Single nt) / % Extension (Single nt): DNA template, 2uM RTX-161; for Average % Extension (Single nt): average of 3 trials; for % Extension (Single nt): single trials 1-3
T2 construct: purified recombinant human Polθ-pol (comprising amino acid residues 1792–2590); made in house
T2 sequence (O75417 1792-2590): T1 sequence (O75417 1792-2590)
Experimental: Relative rate of Polθ-pol dAMP addition. The relative rates of dAMP incorporation by Polq-pol in the presence of DMSO or MC160385 with various concentrations of dATP were measured using the following primer extension assay in vitro. 2 nM or Polθ-pol was incubated with 5’ ^32P-γ-ATP labeled 100 nM primer-template (RP469D/RP486) in 1X buffer (25 mM TrisHCl pH 7.8, 0.01% NP40, 10% glycerol, 1 mM DTT, 10 mM MgCl2, 0.1 mg/ml BSA) at room temp. 2.5% DMSO, 7.5 nM or 12 nM of MC160385 was added. Reactions were than initiated by the addition of 20, 50, 100, 200, or 300 μM dATP at room temp. Aliquots of the reactions were removed and terminated by the addition of 50 mM EDTA at 3, 3.5, 4 and 5 min after the reaction was initiated. Radio-labeled DNA was then resolved via denaturing 20% PAGE and visualized by Typhoon PhosphorImager (GE Amersham). Rates of dAMP incorporation were calculated from % extension of the prime-template which was determined using ImageJ software. Relative rate of ddCMP addition on DNA/DNA and DNA/RNA. 25 nM nucleic acid DNA/DNA or DNA/RNA primer-template (RP559/RP702 or RP559/RP702R) was mixed with 1X reaction buffer (20 mM TrisHCl pH 7.5, 0.01% NP-40, 0.5 mM DTT, 10% glycerol, 0.1 mg/ml BSA, 10 mM MgCl2) in the presence of 250 μM ddCTP at room temp. Next, 2 μM RTx-161 or 2.5% DMSO was added. Reactions were initiated by the addition of 10 nM Polθ-pol. Reaction aliquots were removed and terminated by the addition of 50 mM EDTA at the indicated time points. Radio-labeled DNA was then resolved via denaturing 20% PAGE and visualized by Typhoon PhosphorImager. Percent primer extension by single ddCMP addition at each time point was calculated from % extension of the prime-template which was determined using ImageJ software.

[3] = molecular target: T3, Polβ (Homo sapiens, UniProt P06746); assay: Primer extension by recombinant Pols (selectivity); format: biochemical
T3 construct: gift: Dr. Wilson (NIEHS)

[4] = Clonogenic assay, OLA with or without RTX-161 (Fig. 2 a; cell line not given); format: cell-based; conditions: OLA 0, single experiments, relative to vehicle
[5] = test system: Polε; assay: Primer extension by recombinant Pols (selectivity); format: biochemical
[6] = selectivity panel, Pol named in Supplementary Fig. 1h
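Wherever percent suvival is given: colony counts relative to DMSO-treated cells set as 100%.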

Structure (SMILES): CN(C(=O)Oc1ccc(C(F)(F)F)cc1C(F)(F)F)c1ccc(F)cc1 [MC160385]
- inhibition of Polθ-pol MMEJ activity in vitro [1]: substantial Polθ-pol MMEJ inhibition

Structure (SMILES): CN(C(=O)Oc1c(N2CCN(CCO)C2=O)cc(C(F)(F)F)cc1C(F)(F)F)c1ccc(F)cc1 [RTx-161]
- inhibition of single nucleotide incorporation on DNA/DNA ([2]; 2 μM RTx-161, closed conformation): significant inhibition
- Average % Extension (Single nt) ([2]; Time 0): 0.00%
- % Extension (Single nt) ([2]; Time 0): 0.00%
- Average % Extension (Single nt) ([2]; Time 0.5): 11.29%
- % Extension (Single nt) ([2]; Time 0.5): 12.34% and 11.73% and 9.81%
- Average % Extension (Single nt) ([2]; Time 1): 18.42%
- % Extension (Single nt) ([2]; Time 1): 20.67% and 19.99% and 14.59%
- Average % Extension (Single nt) ([2]; Time 2): 25.83%
- % Extension (Single nt) ([2]; Time 2): 27.74% and 29.45% and 20.29%
- % Full Extension ([3]; Pol Beta): 84.31%
- % Inhibition Compared to Control ([3]; Pol Beta): -0.98%
- % Relative Maximum Extension ([3]; Pol Beta): 100.98%
- inhibition of primer extension [3, 6]: no inhibition
- percent suvival ([4]; RTX-161 0.5 micro M): 63.3333% and 80.7018% and 61.1842%
- percent suvival ([4]; RTX-161 1 micro M): 55.8333% and 71.9298% and 46.0526%
- percent suvival ([4]; RTX-161 2 micro M): 43.3333% and 23.3918% and 22.3684%
- inhibition of Polθ-pol MMEJ activity in vitro [1]: concentration dependent inhibition
- % Full Extension ([5]; Pol Epsilon): 91.14%
- % Inhibition Compared to Control ([5]; Pol Epsilon): -0.19%
- % Relative Maximum Extension ([5]; Pol Epsilon): 100.19%
- inhibition of primer extension [5, 6]: no inhibition
